Experimental data as given in PubChem BioAssay AID2060886 (Molecular Pharmacology Branch, DTP, NCI, 2025).
Several values for one entry are separate records, joined by “and”; a condition that tells them apart may be missing. Equal entries are not always repeated.

System: 653999-131-R-J2-PDC complex spheroids, growth inhibition
Assay: Anticancer human tumor 653999-131-R-J2-PDC patient-derived lung adenocarcinoma cell line growth inhibition [RAS]
Conditions: for viability, T/C: stronger effect = lower value
Summary of the method: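 Agents were tested in combination matrices in half-log decrements from a top concentration at or near clinical Cmax (10 microM if undetermined). Targets were multi-cell spheroids of tumour lines plus HUVEC and MSC stromal cells.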

[1] = curve of first compound, second compound 0.000949 µM
[2] = curve of first compound, second compound 0.003 µM
[3] = curve of first compound, second compound 0.00949 µM
[4] = curve of first compound, second compound 0.03 µM
[5] = curve of first compound, second compound 0.0949 µM
[6] = curve of first compound, second compound 0.3 µM
[7] = second compound 0.000949 µM, first compound 0.00316 µM
[8] = second compound 0.000949 µM, first compound 0.01 µM
[9] = second compound 0.000949 µM, first compound 0.0316 µM
[10] = second compound 0.000949 µM, first compound 0.1 µM
[11] = second compound 0.000949 µM, first compound 0.316 µM
[12] = second compound 0.000949 µM, first compound 1 µM
[13] = second compound 0.003 µM, first compound 0.00316 µM
[14] = second compound 0.003 µM, first compound 0.01 µM
[15] = second compound 0.003 µM, first compound 0.0316 µM
[16] = second compound 0.003 µM, first compound 0.1 µM
[17] = second compound 0.003 µM, first compound 0.316 µM
[18] = second compound 0.003 µM, first compound 1 µM
[19] = second compound 0.00949 µM, first compound 0.00316 µM
[20] = second compound 0.00949 µM, first compound 0.01 µM
[21] = second compound 0.00949 µM, first compound 0.0316 µM
[22] = second compound 0.00949 µM, first compound 0.1 µM
[23] = second compound 0.00949 µM, first compound 0.316 µM
[24] = second compound 0.00949 µM, first compound 1 µM
[25] = second compound 0.03 µM, first compound 0.00316 µM
[26] = second compound 0.03 µM, first compound 0.01 µM
[27] = second compound 0.03 µM, first compound 0.0316 µM
[28] = second compound 0.03 µM, first compound 0.1 µM
[29] = second compound 0.03 µM, first compound 0.316 µM
[30] = second compound 0.03 µM, first compound 1 µM
[31] = second compound 0.0949 µM, first compound 0.00316 µM
[32] = second compound 0.0949 µM, first compound 0.01 µM
[33] = second compound 0.0949 µM, first compound 0.0316 µM
[34] = second compound 0.0949 µM, first compound 0.1 µM
[35] = second compound 0.0949 µM, first compound 0.316 µM
[36] = second compound 0.0949 µM, first compound 1 µM
[37] = second compound 0.3 µM, first compound 0.00316 µM
[38] = second compound 0.3 µM, first compound 0.01 µM
[39] = second compound 0.3 µM, first compound 0.0316 µM
[40] = second compound 0.3 µM, first compound 0.1 µM
[41] = second compound 0.3 µM, first compound 0.316 µM
[42] = second compound 0.3 µM, first compound 1 µM
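Note: spheroids exposed to the agents for seven days before the readout.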

## O=C(c1ccc(F)c(F)c1Nc1ccc(I)cc1F)N1CC(O)([C@@H]2CCCCN2)C1 + CCn1c(-c2cccnc2C(C)OC)c2c3cc(ccc31)N1CCOC(CC(NC(=O)C(C(C)C)N(C)C(=O)C3(F)CCN(C(=O)C#CC(C)(C)N(C)C)CC3)C(=O)N3CCCC(N3)C(=O)OCC(C)(C)C2)C1
[1]
  IC50: 110 nM
[2]
  IC50: 122 nM
[3]
  IC50: 76.6 nM
[4]
  IC50: 81.4 nM
[5]
  IC50: 120 nM
[6]
  IC50: 82 nM
[7]
  viability, T/C: 83.6%
[8]
  viability, T/C: 74.5%
[9]
  viability, T/C: 68.5%
[10]
  viability, T/C: 55.8%
[11]
  viability, T/C: 20.6%
[12]
  viability, T/C: 12%
[13]
  viability, T/C: 82.5%
[14]
  viability, T/C: 60%
[15]
  viability, T/C: 71.3%
[16]
  viability, T/C: 50.8%
[17]
  viability, T/C: 38.4%
[18]
  viability, T/C: 15.4%
[19]
  viability, T/C: 92.9%
[20]
  viability, T/C: 65.2%
[21]
  viability, T/C: 63.7%
[22]
  viability, T/C: 52.3%
[23]
  viability, T/C: 30.1%
[24]
  viability, T/C: 13.2%
[25]
  viability, T/C: 77.4%
[26]
  viability, T/C: 57.8%
[27]
  viability, T/C: 64.5%
[28]
  viability, T/C: 49.6%
[29]
  viability, T/C: 26.2%
[30]
  viability, T/C: 14.2%
[31]
  viability, T/C: 62%
[32]
  viability, T/C: 68.1%
[33]
  viability, T/C: 66.5%
[34]
  viability, T/C: 51.7%
[35]
  viability, T/C: 31.4%
[36]
  viability, T/C: 13.5%
[37]
  viability, T/C: 65.3%
[38]
  viability, T/C: 70.2%
[39]
  viability, T/C: 73.1%
[40]
  viability, T/C: 43.4%
[41]
  viability, T/C: 23.5%
[42]
  viability, T/C: 10.4%

## CC(Nc1ccc2c(c1)OCCn1cc(N3C(=O)OCC3C(F)F)nc1-2)C(N)=O (stereo not given)
Compound 0.0316 µM
  viability, T/C: 79.8% [middle of 4 runs]
Compound 0.1 µM
  viability, T/C: 77.8% [middle of 4 runs]
Compound 0.316 µM
  viability, T/C: 57.4% [middle of 4 runs]
Compound 1 µM
  viability, T/C: 45.6% [middle of 4 runs]
Compound 3.16 µM
  viability, T/C: 36.4% [middle of 4 runs]
Compound 10 µM
  viability, T/C: 25.5% [middle of 4 runs]
Curve of compound
  IC50: 727 nM [middle of 4 runs]

## C=CC(=O)Nc1cc(Nc2nccc(-c3cn(C)c4ccccc34)n2)c(OC)cc1N(C)CCN(C)C + CCn1c(-c2cc(N3CCN(C)CC3)cnc2C(C)OC)c2c3cc(ccc31)-c1csc(n1)CC(NC(=O)C1CC1C)C(=O)N1CCCC(N1)C(=O)OCC(C)(C)C2
[1]
  IC50: 816 nM
[2]
  IC50: 106 nM
[3]
  IC50: < 3.16 nM
[4]
  IC50: < 3.16 nM
[5]
  IC50: < 3.16 nM
[6]
  IC50: < 3.16 nM
[7]
  viability, T/C: 88.7%
[8]
  viability, T/C: 75.9%
[9]
  viability, T/C: 56.2%
[10]
  viability, T/C: 76%
[11]
  viability, T/C: 56.7%
[12]
  viability, T/C: 44.5%
[13]
  viability, T/C: 80.6%
[14]
  viability, T/C: 63.7%
[15]
  viability, T/C: 59%
[16]
  viability, T/C: 52.9%
[17]
  viability, T/C: 43.1%
[18]
  viability, T/C: 37.2%
[19]
  viability, T/C: 47.3%
[20]
  viability, T/C: 39.5%
[21]
  viability, T/C: 36.7%
[22]
  viability, T/C: 38%
[23]
  viability, T/C: 31.6%
[24]
  viability, T/C: 23.2%
[25]
  viability, T/C: 36.4%
[26]
  viability, T/C: 29.9%
[27]
  viability, T/C: 28%
[28]
  viability, T/C: 37.2%
[29]
  viability, T/C: 28.8%
[30]
  viability, T/C: 16.2%
[31]
  viability, T/C: 25.3%
[32]
  viability, T/C: 25.1%
[33]
  viability, T/C: 20.9%
[34]
  viability, T/C: 16.8%
[35]
  viability, T/C: 18.6%
[36]
  viability, T/C: 12.7%
[37]
  viability, T/C: 18.2%
[38]
  viability, T/C: 26.2%
[39]
  viability, T/C: 22.1%
[40]
  viability, T/C: 22.1%
[41]
  viability, T/C: 16.6%
[42]
  viability, T/C: 11.2%

## C[C@@H](NC(=O)c1ncnc(N)c1Cl)c1ncc(C(=O)Nc2cc(C(F)(F)F)c(Cl)cn2)s1
Compound 0.0316 µM
  viability, T/C: 110% and 94.1% and 103%
Compound 0.1 µM
  viability, T/C: 99.2% and 120% and 108%
Compound 0.316 µM
  viability, T/C: 93.9% and 101% and 114%
Compound 1 µM
  viability, T/C: 91.1% and 102% and 105%
Compound 3.16 µM
  viability, T/C: 98.3% and 99.8% and 102%
Compound 10 µM
  viability, T/C: 68.6% and 79% and 75.5%
Curve of compound
  IC50: > 10000 nM

## Cc1nc(N2CCC3(CC2)COC(C)C3N)c(CO)nc1Sc1ccnc(N)c1Cl (stereo not given) + CCn1c(-c2cccnc2C(C)OC)c2c3cc(ccc31)N1CCOC(CC(NC(=O)C(C(C)C)N(C)C(=O)C3(F)CCN(C(=O)C#CC(C)(C)N(C)C)CC3)C(=O)N3CCCC(N3)C(=O)OCC(C)(C)C2)C1
[1]
  IC50: > 10000 nM
[2]
  IC50: > 10000 nM
[3]
  IC50: > 10000 nM
[4]
  IC50: > 10000 nM
[5]
  IC50: > 10000 nM
[6]
  IC50: > 10000 nM
[9]
  viability, T/C: 85.9%
[10]
  viability, T/C: 87.6%
[11]
  viability, T/C: 81.8%
[12]
  viability, T/C: 67.6%
Second compound 0.000949 µM, first compound 3.16 µM
  viability, T/C: 81.7%
Second compound 0.000949 µM, first compound 10 µM
  viability, T/C: 78.9%
[15]
  viability, T/C: 103%
[16]
  viability, T/C: 98.2%
[17]
  viability, T/C: 83.5%
[18]
  viability, T/C: 70.4%
Second compound 0.003 µM, first compound 3.16 µM
  viability, T/C: 78.6%
Second compound 0.003 µM, first compound 10 µM
  viability, T/C: 80.3%
[21]
  viability, T/C: 96%
[22]
  viability, T/C: 71%
[23]
  viability, T/C: 84.8%
[24]
  viability, T/C: 87%
Second compound 0.00949 µM, first compound 3.16 µM
  viability, T/C: 75.2%
Second compound 0.00949 µM, first compound 10 µM
  viability, T/C: 81.2%
[27]
  viability, T/C: 89.6%
[28]
  viability, T/C: 76.8%
[29]
  viability, T/C: 83.6%
[30]
  viability, T/C: 75.8%
Second compound 0.03 µM, first compound 3.16 µM
  viability, T/C: 83.2%
Second compound 0.03 µM, first compound 10 µM
  viability, T/C: 76.8%
[33]
  viability, T/C: 92%
[34]
  viability, T/C: 82.2%
[35]
  viability, T/C: 93.6%
[36]
  viability, T/C: 86.5%
Second compound 0.0949 µM, first compound 3.16 µM
  viability, T/C: 94.4%
Second compound 0.0949 µM, first compound 10 µM
  viability, T/C: 77.4%
[39]
  viability, T/C: 84.1%
[40]
  viability, T/C: 88.3%
[41]
  viability, T/C: 72.4%
[42]
  viability, T/C: 89.7%
Second compound 0.3 µM, first compound 3.16 µM
  viability, T/C: 80.3%
Second compound 0.3 µM, first compound 10 µM
  viability, T/C: 81.7%
